In patent US20230096897A1, “Lymphocyte Population and Methods for Producing Same” (AVM Biotechnology, LLC, priority 2020, published 2023):
Entries after “also recorded” stand apart in the source; their conditions may differ. Like-named read-outs stand apart in the source and are kept apart here.

What was measured:
[1] = test system: CD3high, CD45dim, CD49b+ cells; experiment: Venetoclax pre-treatment before high dose DSP in female NOD mice; assay type: in vivo, mouse; settings: 48 hours
Procedure: Female NOD mice of 10 weeks of age are treated with 12.5 mg/kg up to 50 mg/kg venetoclax 6-18 hours before oral gavage of a HED 30 mg/kg DSP dose. […] CD3high, CD45dim, CD49b+ cells are reduced from—70 cells/microliter with DSP alone to—40 cells/microliter with 12.5 mg/kg venetoclax pretreatment, to—20 cells/microliter with 25 mg/kg venetoclax pretreatment, to—15 cells/microliter with 50 mg/kg venetoclax pretreatment. Venetoclax is a Bcl-2 inhibitor.

[2] = test system: female NOD mice; experiment: Prevention or delay of hyperglycemia in spontaneously diabetic female NOD mice; assay type: in vivo, mouse
Procedure: Female NOD mice were ordered at 9 weeks of age.
Body weights and blood glucose levels were monitored weekly. Body condition was monitored three times per week. Oral glucose tolerance was determined in all surviving mice who reached 30 weeks of age. Remaining mice were necropsied and autoreactive lymphocytes in the pancreas and adjacent lymph nodes were determined by flow cytometry. Pancreatitis was determined by H&E staining (8 out of 15 per group). Pancreatic Beta cell surface area was measured by staining for insulin. […] Pancreas and pancreas lymph nodes were examined for autoreactive, insulin-specific CD4+ T cells by using a magnetic enrichment method together with tetramer reagents.

[3] = test system: AVM-NKT cells; settings: for Time after treatment at which AVM-NKT cells appear in peripheral blood: high doses of glucocorticoid receptor agonists
[4] = test system: A20 B cell lymphoma; experiment: A20 lymphoma study AVM_CANMOD_03 (dose response); assay type: in vivo, mouse
Procedure: In a second study (“AVM_CANMOD_03”), BALB/c mice (n=5 per group) were dosed with increasing concentrations of AVM0703 HED DP (7, 18, and 26 mg/kg) on Days 9, 16, 24, and 31 after tumor inoculation. Treatment started when the tumors were approximately […], as opposed to well-established tumors of 150 mm^3 as in study AVM_CANMOD_01.
Based on evidence of pseudogrowth in tumors from AVM0703-treated mice in study AVM_CANMOD_01, tumors (n=2 per group) were sent to HistoTox Labs for slicing and immunohistochemistry. Hematoxylin and eosin stains identified several regions of necrosis and the slides were scored from 0 to 5 depending on severity.

[5] = test system: peripheral blood mononuclear cells or single cell splenocytes; experiment: In vitro apoptosis of mouse blood mononuclear cells and splenocytes; assay type: cell-based; settings: up to 500 micromolar; out to 72 hours
Procedure: Mononuclear cells from peripheral blood of naïve male C57Bl/6 mice or single cell splenocytes were incubated with equivalent concentrations of AVM0703 as the peak blood concentrations of acute high dose AVM0703 achieve in vivo.
Blood and spleens were taken from naïve C57B16 mice. Mononuclear cells were isolated from blood and single cell splenocytes were isolated from the spleen. […] Therefore, the complete in vivo T and B lymphocyte ablation appears to be mediated by the AVM-NKT, and not a receptor based mechanism such as activation of a glucocorticoid receptor.

[6] = test system: peripheral blood lymphocytes
Procedure: For initial lymphodepletion studies, naïve C57Bl/6 mice were treated with 18 mg/kg HED DP by oral gavage. Male C57BL/6 mice were obtained from Taconic Bioscience (Germantown, N.Y.) and acclimated to laboratory conditions for at least one week. […] When mice reached study timepoint, they were euthanized as follows. Mice were anesthetized with isoflurane gas. Once anesthetized, blood was drawn via cardiac puncture and place immediately in heparin-lined microtubes. 10 mL of 5 U/mL of Heparin/PBS was used for infused by slow push for retrograde perfusion via the abdominal aorta to flush out all remaining blood from the vasculature. […] The remaining blood was sent to Phoenix Labs (Mukilteo, Wash.) for Complete Blood Counts and Clinical Chemistries

[7] = test system: A20 cells; experiment: In vitro apoptosis of A20 cells; assay type: cell-based, mouse; settings: 72 hours after high dose dexamethasone treatment in vitro
[8] = pharmacodynamic (biologic) half-life; cited from earlier work
[9] = high-dose dexamethasone, naïve mice

## CC1(C)CCC(CN2CCN(c3ccc(C(=O)NS(=O)(=O)c4ccc(NCC5CCOCC5)c([N+](=O)[O-])c4)c(Oc4cnc5[nH]ccc5c4)c3)CC2)=C(c2ccc(Cl)cc2)C1 [Venetoclax, venetoclax, reference compound]
[1]; 12.5 mg/kg venetoclax 6-18 hours before HED 30 mg/kg DSP
  CD3high, CD45dim, CD49b+ cells mobilized into the blood: 40 cells/microliter
[1]; 25 mg/kg venetoclax 6-18 hours before HED 30 mg/kg DSP
  CD3high, CD45dim, CD49b+ cells mobilized into the blood: 20 cells/microliter
[1]; 50 mg/kg venetoclax 6-18 hours before HED 30 mg/kg DSP
  CD3high, CD45dim, CD49b+ cells mobilized into the blood: 15 cells/microliter
[2]; dosing from 10 weeks of age, AVM0703 single oral HED 18 or 30 mg/kg, cyclosporine 5 then 10 mg/kg twice weekly, venetoclax 25 mg/kg
  First Onset of hyperglycemia (weeks of age): 14 weeks of age
[2]; same groups
  % Hyperglycemic at 22 wks of age: 90%
  Median Time to diabetes (days after 10 wks of age): 51 days

## C[C@H]1C[C@H]2[C@@H]3CCC4=CC(=O)C=C[C@]4(C)[C@@]3(F)[C@@H](O)C[C@]2(C)[C@@]1(O)C(=O)CO [betamethasone]
[3]
  Time after treatment at which AVM-NKT cells appear in peripheral blood: around 48 hours

## C[C@@H]1C[C@H]2[C@@H]3CCC4=CC(=O)C=C[C@]4(C)[C@@]3(F)[C@@H](O)C[C@]2(C)[C@@]1(O)C(=O)CO [dexamethasone base]
[3]; 15 mg/kg HED
  Induction of AVM-NKT cells (dose escalation): particularly robust production
[3]; 6+6 mg/kg HED dosing schedule
  Induction of AVM-NKT cells (dose escalation): particularly robust production
[3]; single dose between 6-12 mg/kg HED
  Induction of AVM-NKT cells (dose escalation): can induce AVM-NKT cells

## C[C@@H]1C[C@H]2[C@@H]3CCC4=CC(=O)C=C[C@]4(C)[C@@]3(F)[C@@H](O)C[C@]2(C)[C@@]1(O)C(=O)COP(=O)(O)O [dexamethasone phosphate, reference compound]
[4]; 7, 18, 25 mg/kg DP vs placebo
  Tumor CD3 expression (immunohistochemistry): visually decreased
  Tumor NKp46 staining: visual increase
[4]; individual tumors, 18 mg/kg, tumor 158 mm^3 at dosing
  HistoTox Labs Necrosis H&E (0-5): greatest degree of necrosis
[5]
  Apoptosis: no in vitro apoptosis was observed

## C[C@@H]1C[C@H]2[C@@H]3CCC4=CC(=O)C=C[C@]4(C)[C@@]3(F)[C@@H](O)C[C@]2(C)[C@@]1(O)C(=O)CO [dexamethasone]
[3]
  Time after treatment at which AVM-NKT cells appear in peripheral blood: around 48 hours
[3]; normal mice, after dexamethasone dosing
  Time to induction of AVM-NKT cells in the spleen: ≤ 48 h
[6]; 18 mg/kg HED DP
  Platelet numbers: spared; also recorded: does not affect
[6]; 18 mg/kg HED DP, 6 hours to 35 days
  Number of live hematopoietic stem cells: does not significantly alter
[6]; [9]
  Basophils: reduced only at the 6 hour time point
  Eosinophils: reduced only at the 24 and 48 hour time points
  HSCs and MSCs: spared or increased
  RBCs: spared
[7]
  Apoptosis of A20 cells: about 30%

## C[C@]12C=CC(=O)C=C1CC[C@@H]1[C@@H]2C(=O)C[C@@]2(C)[C@H]1CC[C@]2(O)C(=O)CO [prednisone]
[8]
  Biologic half-life: about 20 hours
